PubChem BioAssay AID330 (DTP/NCI, 2004)
“And” between values parts separate entries of the source, which are not always exact repeats. Equal entries are not always repeated. Toxic doses and inconclusive results are not listed.

Tested on: P388 leukemia ip, CD2F1 mice, survival T/C
Experiment: NCI In Vivo Anticancer Drug Screen. Data for tumor model P388 Leukemia (intraperitoneal) in CD2F1 (CDF1) mice
Conditions: endpoint: median survival time, higher = longer survival
Outline: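 Mice carrying the transplanted tumor received test compound or vehicle. Survival was recorded in each group, and the value is the treated-group measurement divided by that of the vehicle-treated control group.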

[1] = dose: 25.0 mg/kg/injection, schedule: Q01DX005 (ip), vehicle: saline
[2] = dose: 100.0 mg/kg/injection, schedule: Q01DX009 (ip), vehicle: saline
[3] = dose: 200.0 mg/kg/injection, schedule: Q01DX009 (ip), vehicle: saline
[4] = dose: 50.0 mg/kg/injection, schedule: Q01DX009 (ip), vehicle: saline
[5] = dose: 60.0 mg/kg/injection, schedule: Q01DX005 (ip), vehicle: saline with Tween-80
[6] = dose: 120.0 mg/kg/injection, schedule: Q01DX005 (ip), vehicle: saline with Tween-80
[7] = dose: 240.0 mg/kg/injection, schedule: Q01DX005 (ip), vehicle: saline with Tween-80
[8] = dose: 100.0 mg/kg/injection, schedule: Q04DX003 (ip), vehicle: Klucel (hydroxypropylcellulose) (HPC)
[9] = dose: 200.0 mg/kg/injection, schedule: Q04DX003 (ip), vehicle: Klucel (hydroxypropylcellulose) (HPC)
[10] = dose: 400.0 mg/kg/injection, schedule: Q04DX003 (ip), vehicle: Klucel (hydroxypropylcellulose) (HPC)
[11] = dose: 100.0 mg/kg/injection, schedule: Q01DX009 (ip), vehicle: saline with Tween-80
[12] = dose: 25.0 mg/kg/injection, schedule: Q01DX009 (ip), vehicle: saline
[13] = dose: 50.0 mg/kg/injection, schedule: Q01DX005 (ip), vehicle: Klucel (hydroxypropylcellulose) (HPC)
[14] = dose: 100.0 mg/kg/injection, schedule: Q01DX005 (ip), vehicle: Klucel (hydroxypropylcellulose) (HPC)
[15] = dose: 200.0 mg/kg/injection, schedule: Q01DX005 (ip), vehicle: Klucel (hydroxypropylcellulose) (HPC)
[16] = dose: 50.0 mg/kg/injection, schedule: Q01DX009 (ip), vehicle: suspension in saline
[17] = dose: 100.0 mg/kg/injection, schedule: Q01DX009 (ip), vehicle: suspension in saline
[18] = dose: 200.0 mg/kg/injection, schedule: Q01DX009 (ip), vehicle: suspension in saline
[19] = dose: 50.0 mg/kg/injection, schedule: Q01DX005 (ip), vehicle: saline with Tween-80

Nc1ccn([C@@H](C=O)C[C@@H](C=O)CO)c(=O)n1
T/C [1]: 112 % of control
T/C (dose: 200.0 mg/kg/injection, schedule: Q01DX005 (ip), vehicle: saline): 150 % of control
T/C (dose: 400.0 mg/kg/injection, schedule: Q01DX005 (ip), vehicle: saline): 166 % of control

c1cc(-c2[nH]c3cc(C4=NCCN4)ccc3c2-c2cc3ccc(C4=NCCN4)cc3[nH]2)ccc1C1=NCCN1
T/C (dose: 3.12 mg/kg/injection, schedule: Q01DX005 (ip), vehicle: Klucel (hydroxypropylcellulose) (HPC)): 107 % of control
T/C (dose: 6.25 mg/kg/injection, schedule: Q01DX005 (ip), vehicle: Klucel (hydroxypropylcellulose) (HPC)): 96 % of control
T/C (dose: 12.5 mg/kg/injection, schedule: Q01DX005 (ip), vehicle: Klucel (hydroxypropylcellulose) (HPC)): 109 % of control

C#CCN(C)CCO
T/C [2]: 111 % of control
T/C [3]: 111 % of control
T/C (dose: 400.0 mg/kg/injection, schedule: Q01DX009 (ip), vehicle: saline): 116 % of control

COc1cccc(C(=O)CCN(C)C)c1
T/C [4]: 98 % of control and 106 % of control
T/C [2]: 99 % of control and 105 % of control

COC(=O)C(=O)C(C#N)c1ccc([N+](=O)[O-])cc1 (stereo unspecified)
T/C [5]: 101 % of control
T/C [6]: 93 % of control
T/C [7]: 95 % of control

O=C(CN1C(=O)NC(c2ccccc2)(c2ccccc2)C1=O)NCCN1CCOCC1
T/C [5]: 97 % of control
T/C [6]: 96 % of control
T/C [7]: 97 % of control

O=c1[nH]c(=S)[nH]c2nccnc12
T/C [8]: 105 % of control
T/C [9]: 118 % of control
T/C [10]: 112 % of control

CCCCN(CCCC)CC(CN(CC)CC)N(CC)C(=O)Nc1ccccc1 (stereo unspecified)
T/C (dose: 12.5 mg/kg/injection, schedule: Q01DX005 (ip), vehicle: saline): 94 % of control
T/C [1]: 93 % of control
T/C (dose: 50.0 mg/kg/injection, schedule: Q01DX005 (ip), vehicle: saline): 102 % of control and 94 % of control

O=C1c2ccccc2C(=O)N1Cc1ccc(CCl)s1
T/C (dose: 15.0 mg/kg/injection, schedule: Q01DX005 (ip), vehicle: saline with Tween-80): 101 % of control
T/C (dose: 30.0 mg/kg/injection, schedule: Q01DX005 (ip), vehicle: saline with Tween-80): 102 % of control
T/C [5]: 100 % of control and 105 % of control
T/C [6]: 119 % of control
T/C [7]: 112 % of control

CCn1cc(C(=O)O)c(=O)c2cnc(N3CCCC3)nc21
T/C (dose: 50.0 mg/kg/injection, schedule: Q01DX009 (ip), vehicle: saline with Tween-80): 90 % of control
T/C [11]: 99 % of control
T/C (dose: 200.0 mg/kg/injection, schedule: Q01DX009 (ip), vehicle: saline with Tween-80): 92 % of control

CCCCCCCCCCCCCCS[As](C)C
T/C (dose: 25.0 mg/kg/injection, schedule: Q04DX002 (ip), vehicle: Klucel (hydroxypropylcellulose) (HPC)): 101 % of control
T/C (dose: 50.0 mg/kg/injection, schedule: Q04DX002 (ip), vehicle: Klucel (hydroxypropylcellulose) (HPC)): 94 % of control
T/C (dose: 100.0 mg/kg/injection, schedule: Q04DX002 (ip), vehicle: Klucel (hydroxypropylcellulose) (HPC)): 90 % of control and 92 % of control
T/C (dose: 400.0 mg/kg/injection, schedule: Q04DX002 (ip), vehicle: Klucel (hydroxypropylcellulose) (HPC)): 91 % of control

N#Cc1c(-c2ccc(Cl)cc2)cn2c1[nH]c(=O)c1c3c(sc12)CCCC3
T/C [5]: 87 % of control
T/C [6]: 86 % of control

CC(=O)CC(=O)Nc1ccccc1
T/C (dose: 12.5 mg/kg/injection, schedule: Q01DX009 (ip), vehicle: saline): 105 % of control
T/C [12]: 94 % of control
T/C [4]: 88 % of control

CC(C)N1CCC(Oc2ccc3ccccc3n2)C1 (stereo unspecified)
T/C (dose: 50.0 mg/kg/injection, schedule: Q01DX009 (ip), vehicle: Klucel (hydroxypropylcellulose) (HPC)): 100 % of control
T/C (dose: 100.0 mg/kg/injection, schedule: Q01DX009 (ip), vehicle: Klucel (hydroxypropylcellulose) (HPC)): 91 % of control

CNC(=O)Nc1nnnc2ccccc12
T/C (dose: 25.0 mg/kg/injection, schedule: Q04DX003 (ip), vehicle: saline with Tween-80): 90 % of control
T/C (dose: 50.0 mg/kg/injection, schedule: Q04DX003 (ip), vehicle: saline with Tween-80): 100 % of control
T/C (dose: 100.0 mg/kg/injection, schedule: Q04DX003 (ip), vehicle: saline with Tween-80): 100 % of control

COC(=O)C1=C(C(=O)OC)C2OC1C(COC(=O)NC1CCCCC1)=C2COC(=O)NC1CCCCC1
T/C (dose: 12.5 mg/kg/injection, schedule: Q01DX009 (ip), vehicle: distilled water + Tween-80): 89 % of control
T/C (dose: 25.0 mg/kg/injection, schedule: Q01DX009 (ip), vehicle: distilled water + Tween-80): 87 % of control
T/C (dose: 50.0 mg/kg/injection, schedule: Q01DX009 (ip), vehicle: distilled water + Tween-80): 89 % of control
T/C (dose: 100.0 mg/kg/injection, schedule: Q01DX009 (ip), vehicle: distilled water + Tween-80): 87 % of control
T/C (dose: 200.0 mg/kg/injection, schedule: Q01DX009 (ip), vehicle: distilled water + Tween-80): 101 % of control

Cn1c2c(F)cccc2c(=O)c2c(O)cc3c(c21)C=CC(C)(C)O3
T/C [13]: 96 % of control
T/C [14]: 91 % of control
T/C [15]: 94 % of control

Fc1cccc(-n2nc3c(c2-c2cccnc2)CCCc2ccccc2-3)c1
T/C (dose: 100.0 mg/kg/injection, schedule: Q01DX001 (ip), vehicle: Klucel (hydroxypropylcellulose) (HPC)): 106 % of control
T/C (dose: 200.0 mg/kg/injection, schedule: Q01DX001 (ip), vehicle: Klucel (hydroxypropylcellulose) (HPC)): 102 % of control
T/C (dose: 400.0 mg/kg/injection, schedule: Q01DX001 (ip), vehicle: Klucel (hydroxypropylcellulose) (HPC)): 106 % of control

Fc1ccc(C2SCCCS2)cc1
T/C [4]: 92 % of control
T/C [2]: 92 % of control
T/C [3]: 101 % of control

COc1cc(C2NC(C(=O)O)CS2)cc(OC)c1OC (stereo unspecified)
T/C [16]: 94 % of control
T/C [17]: 97 % of control
T/C [18]: 96 % of control

CCN(CC)C(=O)c1cc(=O)c(C)c2oc3c(C)c(O)c(N)c(C(=O)N(CC)CC)c3nc1-2
T/C (dose: 60.0 mg/kg/injection, schedule: Q01DX005 (ip), vehicle: Klucel (hydroxypropylcellulose) (HPC)): 92 % of control
T/C (dose: 120.0 mg/kg/injection, schedule: Q01DX005 (ip), vehicle: Klucel (hydroxypropylcellulose) (HPC)): 87 % of control
T/C (dose: 240.0 mg/kg/injection, schedule: Q01DX005 (ip), vehicle: Klucel (hydroxypropylcellulose) (HPC)): 86 % of control

Cc1c2ccccc2c(C)c2c1cc(F)c1ccccc12
T/C (dose: 50.0 mg/kg/injection, schedule: Q04DX003 (ip), vehicle: Klucel (hydroxypropylcellulose) (HPC)): 105 % of control
T/C [8]: 105 % of control
T/C [9]: 113 % of control
T/C [10]: 117 % of control

O=C1CCSC(=S)N1c1ccc2c(c1)OCO2
T/C [16]: 105 % of control
T/C [17]: 90 % of control
T/C [18]: 98 % of control

O=C(c1cc(Nc2ccnc3cc(Cl)ccc23)ccc1O)N1CCC(O)(c2ccccc2)CC1
T/C [19]: 102 % of control
T/C (dose: 100.0 mg/kg/injection, schedule: Q01DX005 (ip), vehicle: saline with Tween-80): 108 % of control
T/C (dose: 200.0 mg/kg/injection, schedule: Q01DX005 (ip), vehicle: saline with Tween-80): 109 % of control

COc1cc(C2OCC3C(c4cc(OC)c(OC)c(OC)c4)OCC23)cc(OC)c1OC (stereo unspecified)
T/C [13]: 102 % of control
T/C [14]: 100 % of control
T/C [15]: 102 % of control

C[C@]12C=CC(=O)C=C1CC[C@@H]1[C@@H]2[C@@H](O)C[C@@]2(C)[C@H]1CC[C@]2(O)C(=O)COC(=O)CCC(=O)O
T/C (dose: 66.0 mg/kg/injection, schedule: Q01DX009 (ip), vehicle: saline with Tween-80): 109 % of control
T/C [11]: 109 % of control
T/C (dose: 150.0 mg/kg/injection, schedule: Q01DX009 (ip), vehicle: saline with Tween-80): 109 % of control

C=CC1CCC[S+]1CC(=O)OCC (stereo unspecified)
T/C (dose: 12.5 mg/kg/injection, schedule: Q01DX005 (ip), vehicle: saline with Tween-80): 100 % of control
T/C (dose: 25.0 mg/kg/injection, schedule: Q01DX005 (ip), vehicle: saline with Tween-80): 105 % of control
T/C [19]: 102 % of control and 107 % of control

CC1(C(F)(F)F)CC(=O)NN1 (stereo unspecified)
T/C [12]: 104 % of control
T/C [4]: 118 % of control
